Results reported in patent publication US20230085307A1, “PYRIDAZINONE COMPOUND AND HERBICIDE” (NISSAN CHEMICAL CORPORATION, priority 2019, published 2023).

How the values were obtained:
barnyard grass [1] = test: Test Example 3: herbicidal effect by foliage application, Wagner pot (Table 18, symbol H); format: in vivo, barnyard grass (Echinochloa crus-galli); conditions: 320 g/ha
Method in brief: (§1)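 Plants were sown in alluvial soil held under 0.1–0.5 cm standing water and grown 14 days in a greenhouse at 25–30 °C. An emulsifiable formulation, water-diluted to the set dose, was then sprayed onto the foliage, and effects were scored three weeks later using previously defined criteria.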

Chinese sprangletop = test: Test Example 3: herbicidal effect by foliage application, Wagner pot (Table 18, symbol D); format: in vivo, chinese sprangletop (Leptochloa chinensis); conditions: 320 g/ha
Method in brief: as §1

rice flat sedge = test: Test Example 3: herbicidal effect by foliage application, Wagner pot (Table 18, symbol E); format: in vivo, rice flat sedge (Cyperus iria); conditions: 320 g/ha
Method in brief: as §1

southern crabgrass [2] = test: Test Example 4: herbicidal effect by soil treatment (Table 19, symbol F); format: in vivo, southern crabgrass (Digitaria ciliaris); conditions: amount of applied herbicide 320 g/ha
Method in brief: (§2)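 Three weeks of greenhouse growth at 25° C. to 30° C. followed a uniform surface spray of water-diluted emulsion at a predetermined herbicide amount. Seeds had been sown beforehand under about 1.5 cm of sterilized diluvial soil. Grading followed criteria set out in an earlier test.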

green foxtail [3] = test: Test Example 4: herbicidal effect by soil treatment (Table 19, symbol G); format: in vivo, green foxtail (Setaria viridis); conditions: amount of applied herbicide 320 g/ha
Method in brief: as §2

barnyard grass [4] = test: Test Example 4: herbicidal effect by soil treatment (Table 19, symbol H); format: in vivo, barnyard grass (Echinochloa crus-galli); conditions: amount of applied herbicide 320 g/ha
Method in brief: as §2

wild oat [5] = test: Test Example 4: herbicidal effect by soil treatment (Table 19, symbol I); format: in vivo, wild oat (Avena fatua); conditions: amount of applied herbicide 320 g/ha
Text: (§3) [Test Example 4] Herbicidal Effect Test by Soil Treatment
(§4) Sterilized diluvial soil was placed in a plastic box having a length of 21 cm, a width of 13 cm, and a depth of 7 cm. The seeds of each of southern crabgrass, green foxtail, barnyard grass, wild oat, blackgrass, Italian ryegrass, windgrass, velvetleaf, redroot pigweed, lambsquarters, chickweed, false cleavers, persian speedwell, corn, soybean, rice, wheat, beet, and rapeseed were sowed in a spot-like manner and covered with the soil having a thickness of about 1.5 cm. Subsequently, the emulsion agent of the compound of the present invention prepared according to Formulation Example 2 was diluted with water so as to achieve a predetermined herbicide amount, and the diluted emulsion agent was uniformly applied to the surface of the soil with a small-sized spray. The plastic box was placed in a greenhouse at 25° C. to 30° C. for growth of the plants. Three weeks after the herbicide application, the effect of the herbicide on each plant was evaluated according to the criteria of Test Example 1.

blackgrass [6] = test: Test Example 4: herbicidal effect by soil treatment (Table 19, symbol J); format: in vivo, blackgrass (Alopecurus myosuroides); conditions: amount of applied herbicide 320 g/ha
Text: as §3, §4

Italian ryegrass [7] = test: Test Example 4: herbicidal effect by soil treatment (Table 19, symbol K); format: in vivo, Italian ryegrass (Lolium multiflorum); conditions: amount of applied herbicide 320 g/ha
Text: as §3, §4

windgrass [8] = test: Test Example 4: herbicidal effect by soil treatment (Table 19, symbol L); format: in vivo, windgrass (Apera spica-venti); conditions: amount of applied herbicide 320 g/ha
Text: as §3, §4

velvetleaf [9] = test: Test Example 4: herbicidal effect by soil treatment (Table 19, symbol M); format: in vivo, velvetleaf (Abutilon theophrasti); conditions: amount of applied herbicide 320 g/ha
Method in brief: as §2

redroot pigweed [10] = test: Test Example 4: herbicidal effect by soil treatment (Table 19, symbol N); format: in vivo, redroot pigweed (Amaranthus retroflexus); conditions: amount of applied herbicide 320 g/ha
Method in brief: as §2

lambsquarters [11] = test: Test Example 4: herbicidal effect by soil treatment (Table 19, symbol O); format: in vivo, lambsquarters (Chenopodium album); conditions: amount of applied herbicide 320 g/ha
Method in brief: as §2

chickweed [12] = test: Test Example 4: herbicidal effect by soil treatment (Table 19, symbol P); format: in vivo, common chickweed (Stellaria media); conditions: amount of applied herbicide 320 g/ha
Text: as §3, §4

southern crabgrass [13] = test: Test Example 5: herbicidal effect by foliage application, plastic box (Table 20, symbol F); format: in vivo, southern crabgrass (Digitaria ciliaris); conditions: 320 g/ha, foliage application after 14-day growth, evaluated three weeks after application
Method in brief: (§5)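 Plants sown in sterilized diluvial soil and grown 14 days in a greenhouse at 25° C to 30° C, then sprayed on the foliage with the compound's emulsion diluted in water to a predetermined herbicide amount. Injury to weeds and crops scored three weeks after application on a visual rating scale.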

green foxtail [14] = test: Test Example 5: herbicidal effect by foliage application, plastic box (Table 20, symbol G); format: in vivo, green foxtail (Setaria viridis); conditions: 320 g/ha, foliage application after 14-day growth, evaluated three weeks after application
Method in brief: as §5

barnyard grass [15] = test: Test Example 5: herbicidal effect by foliage application, plastic box (Table 20, symbol H); format: in vivo, barnyard grass (Echinochloa crus-galli); conditions: 320 g/ha, foliage application after 14-day growth, evaluated three weeks after application
Method in brief: as §5

wild oat [16] = test: Test Example 5: herbicidal effect by foliage application, plastic box (Table 20, symbol I); format: in vivo, wild oat (Avena fatua); conditions: 320 g/ha, foliage application after 14-day growth, evaluated three weeks after application
Method in brief: as §5

blackgrass [17] = test: Test Example 5: herbicidal effect by foliage application, plastic box (Table 20, symbol J); format: in vivo, blackgrass (Alopecurus myosuroides); conditions: 320 g/ha, foliage application after 14-day growth, evaluated three weeks after application
Method in brief: as §5

Italian ryegrass [18] = test: Test Example 5: herbicidal effect by foliage application, plastic box (Table 20, symbol K); format: in vivo, Italian ryegrass (Lolium multiflorum); conditions: 320 g/ha, foliage application after 14-day growth, evaluated three weeks after application
Method in brief: as §5

windgrass [19] = test: Test Example 5: herbicidal effect by foliage application, plastic box (Table 20, symbol L); format: in vivo, windgrass (Apera spica-venti); conditions: 320 g/ha, foliage application after 14-day growth, evaluated three weeks after application
Method in brief: as §5

velvetleaf [20] = test: Test Example 5: herbicidal effect by foliage application, plastic box (Table 20, symbol M); format: in vivo, velvetleaf (Abutilon theophrasti); conditions: 320 g/ha, foliage application after 14-day growth, evaluated three weeks after application
Method in brief: as §5

redroot pigweed [21] = test: Test Example 5: herbicidal effect by foliage application, plastic box (Table 20, symbol N); format: in vivo, redroot pigweed (Amaranthus retroflexus); conditions: 320 g/ha, foliage application after 14-day growth, evaluated three weeks after application
Method in brief: as §5

lambsquarters [22] = test: Test Example 5: herbicidal effect by foliage application, plastic box (Table 20, symbol O); format: in vivo, lambsquarters (Chenopodium album); conditions: 320 g/ha, foliage application after 14-day growth, evaluated three weeks after application
Method in brief: as §5

chickweed [23] = test: Test Example 5: herbicidal effect by foliage application, plastic box (Table 20, symbol P); format: in vivo, common chickweed (Stellaria media); conditions: 320 g/ha, foliage application after 14-day growth, evaluated three weeks after application
Method in brief: as §5

persian speedwell = test: Test Example 5: herbicidal effect by foliage application, plastic box (Table 20, symbol R); format: in vivo, Persian speedwell (Veronica persica); conditions: 320 g/ha, foliage application after 14-day growth, evaluated three weeks after application
Method in brief: as §5

Structure (SMILES): CCOc1ccccc1-c1sc2c(Cl)cccc2c1-c1c(O)c(C)nn(C)c1=O [4-025]
- herbicidal effect on barnyard grass (H) (barnyard grass [1]): 5 (Herbicidal rate of 90% or more (almost completely withered))
- herbicidal effect on Chinese sprangletop (D) (Chinese sprangletop): 3 (Herbicidal rate of 40% or more and less than 70%)
- herbicidal effect on rice flat sedge (E) (rice flat sedge): 5 (Herbicidal rate of 90% or more (almost completely withered))
- Herbicidal effect by soil treatment, F: southern crabgrass (southern crabgrass [2]): 2 (Herbicidal rate of 20% or more and less than 40%)
- Herbicidal effect by soil treatment, G: green foxtail (green foxtail [3]): 4 (Herbicidal rate of 70% or more and less than 90%)
- Herbicidal effect by soil treatment, H: barnyard grass (barnyard grass [4]): 3 (Herbicidal rate of 40% or more and less than 70%)
- Herbicidal effect by soil treatment, I: wild oat (wild oat [5]): 0 (Herbicidal rate of 5% or less (almost no effect))
- Herbicidal effect by soil treatment, J: blackgrass (blackgrass [6]): 1 (Herbicidal rate of 5% or more and less than 20%)
- Herbicidal effect by soil treatment, K: Italian ryegrass (Italian ryegrass [7]): 0 (Herbicidal rate of 5% or less (almost no effect))
- Herbicidal effect by soil treatment, L: windgrass (windgrass [8]): 0 (Herbicidal rate of 5% or less (almost no effect))
- Herbicidal effect by soil treatment, M: velvetleaf (velvetleaf [9]): 2 (Herbicidal rate of 20% or more and less than 40%)
- Herbicidal effect by soil treatment, N: redroot pigweed (redroot pigweed [10]): 3 (Herbicidal rate of 40% or more and less than 70%)
- Herbicidal effect by soil treatment, O: lambsquarters (lambsquarters [11]): 1 (Herbicidal rate of 5% or more and less than 20%)
- Herbicidal effect by soil treatment, P: chickweed (chickweed [12]): 0 (Herbicidal rate of 5% or less (almost no effect))
- herbicidal effect on F: southern crabgrass (evaluation grade 0-5) (southern crabgrass [13]): 3 (Herbicidal rate of 40% or more and less than 70%)
- herbicidal effect on G: green foxtail (evaluation grade 0-5) (green foxtail [14]): 5 (Herbicidal rate of 90% or more (almost completely withered))
- herbicidal effect on H: barnyard grass (evaluation grade 0-5) (barnyard grass [15]): 5 (Herbicidal rate of 90% or more (almost completely withered))
- herbicidal effect on I: wild oat (evaluation grade 0-5) (wild oat [16]): 0 (Herbicidal rate of 5% or less (almost no effect))
- herbicidal effect on J: blackgrass (evaluation grade 0-5) (blackgrass [17]): 4 (Herbicidal rate of 70% or more and less than 90%)
- herbicidal effect on K: Italian ryegrass (evaluation grade 0-5) (Italian ryegrass [18]): 3 (Herbicidal rate of 40% or more and less than 70%)
- herbicidal effect on L: windgrass (evaluation grade 0-5) (windgrass [19]): 5 (Herbicidal rate of 90% or more (almost completely withered))
- herbicidal effect on M: velvetleaf (evaluation grade 0-5) (velvetleaf [20]): 4 (Herbicidal rate of 70% or more and less than 90%)
- herbicidal effect on N: redroot pigweed (evaluation grade 0-5) (redroot pigweed [21]): 4 (Herbicidal rate of 70% or more and less than 90%)
- herbicidal effect on O: lambsquarters (evaluation grade 0-5) (lambsquarters [22]): 3 (Herbicidal rate of 40% or more and less than 70%)
- herbicidal effect on P: chickweed (evaluation grade 0-5) (chickweed [23]): 4 (Herbicidal rate of 70% or more and less than 90%)
- herbicidal effect on R: persian speedwell (evaluation grade 0-5) (persian speedwell): 5 (Herbicidal rate of 90% or more (almost completely withered))

Structure (SMILES): Cc1nn(C)c(=O)c(-c2c(-c3ccccc3F)sc3c(Cl)cccc23)c1O [4-058]
- herbicidal effect on barnyard grass (H) (barnyard grass [1]): 4 (Herbicidal rate of 70% or more and less than 90%)
- herbicidal effect on Chinese sprangletop (D) (Chinese sprangletop): 3 (Herbicidal rate of 40% or more and less than 70%)
- herbicidal effect on rice flat sedge (E) (rice flat sedge): 3 (Herbicidal rate of 40% or more and less than 70%)
- Herbicidal effect by soil treatment, F: southern crabgrass (southern crabgrass [2]): 0 (Herbicidal rate of 5% or less (almost no effect))
- Herbicidal effect by soil treatment, G: green foxtail (green foxtail [3]): 0 (Herbicidal rate of 5% or less (almost no effect))
- Herbicidal effect by soil treatment, H: barnyard grass (barnyard grass [4]): 0 (Herbicidal rate of 5% or less (almost no effect))
- Herbicidal effect by soil treatment, I: wild oat (wild oat [5]): 0 (Herbicidal rate of 5% or less (almost no effect))
- Herbicidal effect by soil treatment, J: blackgrass (blackgrass [6]): 0 (Herbicidal rate of 5% or less (almost no effect))
- Herbicidal effect by soil treatment, K: Italian ryegrass (Italian ryegrass [7]): 2 (Herbicidal rate of 20% or more and less than 40%)
- Herbicidal effect by soil treatment, L: windgrass (windgrass [8]): 0 (Herbicidal rate of 5% or less (almost no effect))
- Herbicidal effect by soil treatment, M: velvetleaf (velvetleaf [9]): 0 (Herbicidal rate of 5% or less (almost no effect))
- Herbicidal effect by soil treatment, N: redroot pigweed (redroot pigweed [10]): 0 (Herbicidal rate of 5% or less (almost no effect))
- Herbicidal effect by soil treatment, O: lambsquarters (lambsquarters [11]): 0 (Herbicidal rate of 5% or less (almost no effect))
- Herbicidal effect by soil treatment, P: chickweed (chickweed [12]): 5 (Herbicidal rate of 90% or more (almost completely withered))
- herbicidal effect on F: southern crabgrass (evaluation grade 0-5) (southern crabgrass [13]): 2 (Herbicidal rate of 20% or more and less than 40%)
- herbicidal effect on G: green foxtail (evaluation grade 0-5) (green foxtail [14]): 0 (Herbicidal rate of 5% or less (almost no effect))
- herbicidal effect on H: barnyard grass (evaluation grade 0-5) (barnyard grass [15]): 0 (Herbicidal rate of 5% or less (almost no effect))
- herbicidal effect on I: wild oat (evaluation grade 0-5) (wild oat [16]): 0 (Herbicidal rate of 5% or less (almost no effect))
- herbicidal effect on J: blackgrass (evaluation grade 0-5) (blackgrass [17]): 0 (Herbicidal rate of 5% or less (almost no effect))
- herbicidal effect on K: Italian ryegrass (evaluation grade 0-5) (Italian ryegrass [18]): 3 (Herbicidal rate of 40% or more and less than 70%)
- herbicidal effect on L: windgrass (evaluation grade 0-5) (windgrass [19]): 4 (Herbicidal rate of 70% or more and less than 90%)
- herbicidal effect on M: velvetleaf (evaluation grade 0-5) (velvetleaf [20]): 1 (Herbicidal rate of 5% or more and less than 20%)
- herbicidal effect on N: redroot pigweed (evaluation grade 0-5) (redroot pigweed [21]): 3 (Herbicidal rate of 40% or more and less than 70%)
- herbicidal effect on O: lambsquarters (evaluation grade 0-5) (lambsquarters [22]): 2 (Herbicidal rate of 20% or more and less than 40%)
- herbicidal effect on P: chickweed (evaluation grade 0-5) (chickweed [23]): 5 (Herbicidal rate of 90% or more (almost completely withered))
- herbicidal effect on R: persian speedwell (evaluation grade 0-5) (persian speedwell): 5 (Herbicidal rate of 90% or more (almost completely withered))
